≈ marks a conversion by molar mass, not a printed value. Where two headings read alike, the source gives them in different places.
Assay: Determination of the solubility of anthraquinone derivatives in xylene/diisobutylcarbinol
Type: physicochemical
Conditions: for solubility: mixture of xylene (50 volume-%) and diisobutylcarbinol (50 volume-%), 22° C.; for Solubility (in words): xylene/diisobutylcarbinol solvent system, comparison of anthraquinone derivatives
Method: 0.06 ml of a mixture of xylene (50 volume-%) and diisobutylcarbinol (50 volume-%) were added to 1 g of the respective anthraquinone derivative at 22° C. every 60 seconds until the anthraquinone derivative was dissolved completely.

Row | Compound | solubility (xylene/diisobutylcarbinol mixture (50:50 by volume), organic solvent or mixture, thermodynamic from solid, read-out: Solubility) [mM] | Solubility (in words) | solubility
1 | CCc1ccc2c(c1)C(=O)c1ccccc1C2=O [2-ethylanthraquinone] | 270 (≈ 63.8 mg/mL) | poorly soluble | 
2 | Cc1cc2c(cc1C)C(=O)c1cc(C)c(C)cc1C2=O [Comparative Example 6, 2,3,6,7-tetramethylanthracene-9,10-dione] |  | insoluble | insoluble
